The structures appear in SMILES notation.

One test has as its system human Kv1.4 channel. In kind it is cell-based.
The test system of a further test is human Kv1.5 channel. In kind it is cell-based.

In the case of `CSCC[C@H](NC(=O)[C@@H]1CCCN1C(=O)CNC(=O)[C@H](CO)NC(=O)[C@@H](NC(=O)[C@H](C)N)[C@@H](C)O)C(=O)NCC(=O)N[C@@H](Cc1c[nH]c2ccccc12)C(=O)N[C@@H](CC(C)C)C(=O)N1CCC[C@H]1C(=O)N[C@H](C(=O)N[C@@H](Cc1ccccc1)C(=O)N[C@@H](Cc1ccc(O)cc1)C(=O)N[C@@H](CCCNC(=N)N)C(=O)N[C@@H](Cc1ccccc1)C(N)=O)C(C)C` [CNF-Sr3, Conorfamide-Sr3], the “Decrease of current, Kv1.4” value in the test on human Kv1.4 channel is recorded as “less than 5%”. The “Decrease of current, Kv1.5” value in the test with human Kv1.5 channel is reported as “less than 5%”.
